Literature values as cited in US9707278B2, “Methods of modulating immune responses by modifying Akt3 bioactivity” (Augusta University Research Institute, Inc., priority 2014, dated 2017).
Blank lines part the entries; values can stand above or below the compound they belong to.

How the values were obtained:
PKA = PKA (Homo sapiens, UniProt P17612)
p70S6K = p70S6K (Homo sapiens, UniProt P23443)
[1] = human, in vivo
[2] = patients with advanced solid tumors
[3] = tested on: 250 other protein kinases
[4] = patients with advanced solid tumors; remark: listed apart in the source

Sequence of p70S6K (P23443 whole entry): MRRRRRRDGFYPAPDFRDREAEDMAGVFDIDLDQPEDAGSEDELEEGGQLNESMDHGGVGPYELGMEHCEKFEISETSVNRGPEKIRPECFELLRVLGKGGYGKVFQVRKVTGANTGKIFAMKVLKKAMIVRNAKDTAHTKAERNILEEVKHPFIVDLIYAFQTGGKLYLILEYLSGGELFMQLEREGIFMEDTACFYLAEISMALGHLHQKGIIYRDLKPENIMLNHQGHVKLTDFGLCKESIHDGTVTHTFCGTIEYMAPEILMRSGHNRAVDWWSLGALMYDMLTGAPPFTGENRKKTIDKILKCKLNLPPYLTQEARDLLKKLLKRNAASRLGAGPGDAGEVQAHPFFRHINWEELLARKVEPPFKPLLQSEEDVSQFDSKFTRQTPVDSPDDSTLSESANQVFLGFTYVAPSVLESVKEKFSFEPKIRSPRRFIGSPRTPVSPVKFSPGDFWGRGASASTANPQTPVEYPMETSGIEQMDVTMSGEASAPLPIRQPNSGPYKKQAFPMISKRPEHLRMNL

IC50 (PKA): 20 nM
IC50 (p70S6K): 85 nM
Compound: Clc1ccc(C2(c3ccc(-c4cn[nH]c4)cc3)CCNCC2)cc1 [AT7867]

Compound: NC1(C(=O)N[C@@H](CCO)c2ccc(Cl)cc2)CCN(c2ncnc3[nH]ccc23)CC1 [AZD5363]
tolerability [1]: generally well tolerated

Compound: CC(C)NC[C@@H](C(=O)N1CCN(c2ncnc3c2[C@H](C)C[C@H]3O)CC1)c1ccc(Cl)cc1 [GDC-0068]
single agent maximum tolerated dose [2]: 600 mg

Compound: NC1(c2ccc(-c3nc4ccn5c(=O)[nH]nc5c4cc3-c3ccccc3)cc2)CCC1 [MK-2206 2HCl]
inhibitory activities against 250 other protein kinases [3]: no inhibitory activities

Compound: NC1(c2ccc(-c3nc4ccn5c(=O)[nH]nc5c4cc3-c3ccccc3)cc2)CCC1 [MK-2206]
dose-limiting toxicities ([4]; 30, 60, 75, or 90 mg on alternate days): skin rash and stomatitis
MTD ([4]; oral, alternate days): 60 mg
